Measured values from ChEMBL document CHEMBL1145390, “Synthesis and preliminary biological characterization of new semisynthetic derivatives of ramoplanin” (J Med Chem, 2007).
Values after ≈ are worked out from the molar mass of the structure shown.

What was measured:
[1] = tested on: Enterococcus faecalis; assay: Antibacterial activity against Enterococcus faecalis after 24 hrs by broth microdilution method; assay type: functional
[2] = tested on: Staphylococcus aureus; assay: Antibacterial activity against Staphylococcus aureus Smith after 24 hrs by broth microdilution method; assay type: functional
[3] = tested on: Staphylococcus aureus; assay: Antibacterial activity against methicillin-resistant Staphylococcus aureus clinical isolate after 24 hrs by broth microdilution method; assay type: functional
[4] = tested on: Staphylococcus aureus; assay: Antibacterial activity against methicillin-resistant and vancomycin-intermediate resistant Staphylococcus aureus clinical isolate after 24 hrs by broth microdilution method; assay type: functional
[5] = tested on: Staphylococcus aureus; assay: Antibacterial activity against vancomycin-intermediate resistant Staphylococcus aureus clinical isolate after 24 hrs by broth microdilution method; assay type: functional
[6] = tested on: Streptococcus pyogenes; assay: Antibacterial activity against Streptococcus pyogenes C203 after 24 hrs by broth microdilution method; assay type: functional; settings: C203, 24 h
[7] = tested on: Enterococcus faecalis; assay: Antibacterial activity against vancomycin A-resistant Enterococcus faecalis after 24 hrs by broth microdilution method; assay type: functional
[8] = tested on: Enterococcus faecium; assay: Antibacterial activity against Enterococcus faecium after 24 hrs by broth microdilution method; assay type: functional
[9] = tested on: Enterococcus faecium; assay: Antibacterial activity against vancomycin A-resistant Enterococcus faecium clinical isolate after 24 hrs by broth microdilution method; assay type: functional
[10] = tested on: Escherichia coli; assay: Antibacterial activity against Escherichia coli SKF-12140 after 24 hrs by broth microdilution method; assay type: functional
[11] = tested on: Candida albicans; assay: Antifungal activity against Candida albicans SKF-2270 after 24 hrs by broth microdilution method; assay type: functional
[12] = Toxicity assessed as hemolysis in erythrocytes at 180 mg/L; assay type: cell-based, Erythrocyte; settings: human; for hemolysis at 180 mg/L: erythrocytes, read-out: Activity
[13] = Toxicity assessed as hemolysis in erythrocytes at 90 mg/L; assay type: cell-based, Erythrocyte; settings: human; for hemolysis at 90 mg/L: erythrocytes, read-out: Activity

Structure (SMILES) | MIC ([1]; read-out: MIC) [µg/mL] | MIC ([2]; read-out: MIC) [µg/mL] | MIC ([3]; read-out: MIC) [µg/mL] | MIC ([4]; read-out: MIC) [µg/mL] | MIC [5] [µg/mL] | MIC ([6]; read-out: MIC) [µg/mL] | MIC ([7]; read-out: MIC) [µg/mL] | MIC ([8]; read-out: MIC) [µg/mL] | MIC ([9]; read-out: MIC) [µg/mL] | MIC ([10]; read-out: MIC) [µg/mL] | MIC ([11]; read-out: MIC) [µg/mL] | hemolysis at 180 mg/L [12] [%] | hemolysis at 90 mg/L [13] [%] | also measured
CCCCCCCOc1ccc(C(=O)N[C@@H](CC(N)=O)C(=O)NC[C@@H]2C(=O)N[C@H](c3ccc(O)cc3)C(=O)N[C@H](CCCN)C(=O)N[C@H](C(C)C)C(=O)N[C@@H](c3ccc(O)cc3)C(=O)N[C@H](c3ccc(O)cc3)C(=O)N[C@@H]([C@@H](C)O)C(=O)N[C@@H](Cc3ccccc3)C(=O)N[C@H](CCCN)C(=O)N[C@@H](c3ccc(O[C@H]4O[C@H](CO)[C@@H](O)[C@H](O)[C@@H]4O[C@H]4O[C@H](CO)[C@@H](O)[C@H](O)[C@@H]4O)cc3)C(=O)N[C@H]([C@@H](C)O)C(=O)N[C@@H](c3ccc(O)cc3)C(=O)NCC(=O)N[C@@H](CC(C)C)C(=O)N[C@H](C)C(=O)N[C@@H](c3ccc(O)c(Cl)c3)C(=O)O[C@@H]2C(N)=O)cc1 | 2 (≈ 0.755 µM) | 8 (≈ 3.02 µM) | 4 (≈ 1.51 µM) | 16 (≈ 6.04 µM) | 8 (≈ 3.02 µM) | 2 (≈ 0.755 µM) | 2 (≈ 0.755 µM) | 2 (≈ 0.755 µM) | 1 (≈ 0.378 µM) | > 32 | > 32 | 21 | 0 | –
CC(C)C[C@@H]1NC(=O)CNC(=O)[C@H](c2ccc(O)cc2)NC(=O)[C@@H]([C@@H](C)O)NC(=O)[C@H](c2ccc(O[C@H]3O[C@H](CO)[C@@H](O)[C@H](O)[C@@H]3O[C@H]3O[C@H](CO)[C@@H](O)[C@H](O)[C@@H]3O)cc2)NC(=O)[C@@H](CCCN)NC(=O)[C@H](Cc2ccccc2)NC(=O)[C@H]([C@@H](C)O)NC(=O)[C@@H](c2ccc(O)cc2)NC(=O)[C@H](c2ccc(O)cc2)NC(=O)[C@@H](C(C)C)NC(=O)[C@@H](CCCN)NC(=O)[C@@H](c2ccc(O)cc2)NC(=O)[C@@H](CNC(=O)[C@H](CC(N)=O)NC(=O)Cc2cccc3ccccc23)[C@@H](C(N)=O)OC(=O)[C@H](c2ccc(O)c(Cl)c2)NC(=O)[C@@H](C)NC1=O | – | – | – | – | 0.0005 (≈ 0.000192 µM) | – | – | – | – | – | – | – | – | MIC [1]: 0.125 µg/mL (≈ 0.0481 µM); MIC [2]: 0.25 µg/mL (≈ 0.0962 µM); MIC [3]: 0.125 µg/mL (≈ 0.0481 µM); MIC [4]: 1 µg/mL (≈ 0.385 µM); MIC [6]: ≤ 0.03 µg/mL; MIC [7]: 0.125 µg/mL (≈ 0.0481 µM); MIC [8]: 0.25 µg/mL (≈ 0.0962 µM); MIC [9]: 0.25 µg/mL (≈ 0.0962 µM); MIC [10]: > 32 µg/mL; MIC [11]: > 32 µg/mL; Activity ([12]; erythrocyte): 28%; Activity ([13]; erythrocyte): 15%
CC(C)C[C@@H]1NC(=O)CNC(=O)[C@H](c2ccc(O)cc2)NC(=O)[C@@H]([C@@H](C)O)NC(=O)[C@H](c2ccc(O[C@H]3O[C@H](CO)[C@@H](O)[C@H](O)[C@@H]3O[C@H]3O[C@H](CO)[C@@H](O)[C@H](O)[C@@H]3O)cc2)NC(=O)[C@@H](CCCN)NC(=O)[C@H](Cc2ccccc2)NC(=O)[C@H]([C@@H](C)O)NC(=O)[C@@H](c2ccc(O)cc2)NC(=O)[C@H](c2ccc(O)cc2)NC(=O)[C@@H](C(C)C)NC(=O)[C@@H](CCCN)NC(=O)[C@@H](c2ccc(O)cc2)NC(=O)[C@@H](CNC(=O)[C@H](CC(N)=O)NC(=O)c2ccc3ccccc3c2)[C@@H](C(N)=O)OC(=O)[C@H](c2ccc(O)c(Cl)c2)NC(=O)[C@@H](C)NC1=O | 0.125 (≈ 0.0484 µM) | 0.125 (≈ 0.0484 µM) | 0.25 (≈ 0.0967 µM) | 2 (≈ 0.774 µM) | 1 (≈ 0.387 µM) | ≤ 0.03 | 0.25 (≈ 0.0967 µM) | 0.25 (≈ 0.0967 µM) | 0.25 (≈ 0.0967 µM) | > 32 | > 32 | 40 | 8 | –
CC(C)C[C@@H]1NC(=O)CNC(=O)[C@H](c2ccc(O)cc2)NC(=O)[C@@H]([C@@H](C)O)NC(=O)[C@H](c2ccc(O[C@H]3O[C@H](CO)[C@@H](O)[C@H](O)[C@@H]3O[C@H]3O[C@H](CO)[C@@H](O)[C@H](O)[C@@H]3O)cc2)NC(=O)[C@@H](CCCN)NC(=O)[C@H](Cc2ccccc2)NC(=O)[C@H]([C@@H](C)O)NC(=O)[C@@H](c2ccc(O)cc2)NC(=O)[C@H](c2ccc(O)cc2)NC(=O)[C@@H](C(C)C)NC(=O)[C@@H](CCCN)NC(=O)[C@@H](c2ccc(O)cc2)NC(=O)[C@@H](CNC(=O)[C@H](CC(N)=O)NC(=O)c2ccc(Cl)cc2)[C@@H](C(N)=O)OC(=O)[C@H](c2ccc(O)c(Cl)c2)NC(=O)[C@@H](C)NC1=O | 0.5 (≈ 0.195 µM) | 0.5 (≈ 0.195 µM) | 1 (≈ 0.389 µM) | 4 (≈ 1.56 µM) | 2 (≈ 0.779 µM) | < 0.03 | 0.5 (≈ 0.195 µM) | 0.5 (≈ 0.195 µM) | 0.5 (≈ 0.195 µM) | > 32 | > 32 | 13 | 5 | –
CC(C)C[C@@H]1NC(=O)CNC(=O)[C@H](c2ccc(O)cc2)NC(=O)[C@@H]([C@@H](C)O)NC(=O)[C@H](c2ccc(O[C@H]3O[C@H](CO)[C@@H](O)[C@H](O)[C@@H]3O[C@H]3O[C@H](CO)[C@@H](O)[C@H](O)[C@@H]3O)cc2)NC(=O)[C@@H](CCCN)NC(=O)[C@H](Cc2ccccc2)NC(=O)[C@H]([C@@H](C)O)NC(=O)[C@@H](c2ccc(O)cc2)NC(=O)[C@H](c2ccc(O)cc2)NC(=O)[C@@H](C(C)C)NC(=O)[C@@H](CCCN)NC(=O)[C@@H](c2ccc(O)cc2)NC(=O)[C@@H](CNC(=O)[C@H](CC(N)=O)NC(=O)c2ccccc2)[C@@H](C(N)=O)OC(=O)[C@H](c2ccc(O)c(Cl)c2)NC(=O)[C@@H](C)NC1=O | 4 (≈ 1.58 µM) | 8 (≈ 3.16 µM) | 8 (≈ 3.16 µM) | > 32 | 32 (≈ 12.6 µM) | 0.125 (≈ 0.0493 µM) | 4 (≈ 1.58 µM) | 8 (≈ 3.16 µM) | 4 (≈ 1.58 µM) | > 32 | > 32 | 4 | 0 | –
CCCCCC(=O)N[C@@H](CC(N)=O)C(=O)NC[C@@H]1C(=O)N[C@H](c2ccc(O)cc2)C(=O)N[C@H](CCCN)C(=O)N[C@H](C(C)C)C(=O)N[C@@H](c2ccc(O)cc2)C(=O)N[C@H](c2ccc(O)cc2)C(=O)N[C@@H]([C@@H](C)O)C(=O)N[C@@H](Cc2ccccc2)C(=O)N[C@H](CCCN)C(=O)N[C@@H](c2ccc(O[C@H]3O[C@H](CO)[C@@H](O)[C@H](O)[C@@H]3O[C@H]3O[C@H](CO)[C@@H](O)[C@H](O)[C@@H]3O)cc2)C(=O)N[C@H]([C@@H](C)O)C(=O)N[C@@H](c2ccc(O)cc2)C(=O)NCC(=O)N[C@@H](CC(C)C)C(=O)N[C@H](C)C(=O)NC(c2ccc(O)c(Cl)c2)C(=O)O[C@@H]1C(N)=O (some centres undefined) | 2 (≈ 0.791 µM) | 4 (≈ 1.58 µM) | 4 (≈ 1.58 µM) | 32 (≈ 12.7 µM) | 16 (≈ 6.33 µM) | 0.125 (≈ 0.0494 µM) | 2 (≈ 0.791 µM) | 4 (≈ 1.58 µM) | 4 (≈ 1.58 µM) | > 32 | > 32 | 8 | 0 | –
CCCC(=O)N[C@@H](CC(N)=O)C(=O)NC[C@@H]1C(=O)N[C@H](c2ccc(O)cc2)C(=O)N[C@H](CCCN)C(=O)N[C@H](C(C)C)C(=O)N[C@@H](c2ccc(O)cc2)C(=O)N[C@H](c2ccc(O)cc2)C(=O)N[C@@H]([C@@H](C)O)C(=O)N[C@@H](Cc2ccccc2)C(=O)N[C@H](CCCN)C(=O)N[C@@H](c2ccc(O[C@H]3O[C@H](CO)[C@@H](O)[C@H](O)[C@@H]3O[C@H]3O[C@H](CO)[C@@H](O)[C@H](O)[C@@H]3O)cc2)C(=O)N[C@H]([C@@H](C)O)C(=O)N[C@@H](c2ccc(O)cc2)C(=O)NCC(=O)N[C@@H](CC(C)C)C(=O)N[C@H](C)C(=O)N[C@@H](c2ccc(O)c(Cl)c2)C(=O)O[C@@H]1C(N)=O | 16 (≈ 6.4 µM) | > 32 | 32 (≈ 12.8 µM) | > 32 | > 32 | 0.5 (≈ 0.2 µM) | 16 (≈ 6.4 µM) | 32 (≈ 12.8 µM) | 16 (≈ 6.4 µM) | > 32 | > 32 | 2 | 0 | –
CCCCCCCCCC(=O)N[C@@H](CC(N)=O)C(=O)NC[C@@H]1C(=O)N[C@H](c2ccc(O)cc2)C(=O)N[C@H](CCCN)C(=O)N[C@H](C(C)C)C(=O)N[C@@H](c2ccc(O)cc2)C(=O)N[C@H](c2ccc(O)cc2)C(=O)N[C@@H]([C@@H](C)O)C(=O)N[C@@H](Cc2ccccc2)C(=O)N[C@H](CCCN)C(=O)N[C@@H](c2ccc(O[C@H]3O[C@H](CO)[C@@H](O)[C@H](O)[C@@H]3O[C@H]3O[C@H](CO)[C@@H](O)[C@H](O)[C@@H]3O)cc2)C(=O)N[C@H]([C@@H](C)O)C(=O)N[C@@H](c2ccc(O)cc2)C(=O)NCC(=O)N[C@@H](CC(C)C)C(=O)N[C@H](C)C(=O)N[C@@H](c2ccc(O)c(Cl)c2)C(=O)O[C@@H]1C(N)=O | 0.125 (≈ 0.0484 µM) | 2 (≈ 0.774 µM) | 2 (≈ 0.774 µM) | 8 (≈ 3.1 µM) | 4 (≈ 1.55 µM) | 0.25 (≈ 0.0967 µM) | 0.06 (≈ 0.0232 µM) | 0.25 (≈ 0.0967 µM) | 0.06 (≈ 0.0232 µM) | > 32 | > 32 | 41 | 0 | –
